Measured values taken from patent US11439622B2 (OXFORD UNIVERSITY INNOVATION LIMITED, priority 2015, dated 2022).
Like-named read-outs stand apart in the source and are kept apart here.

What was measured:
Format in all cases: biochemical
[1] = molecular target: VIM-2 (Veronese metallo-β-lactamase-2) (Escherichia coli, UniProt Q5U7L7); assay: Enzyme inhibition assay, VIM-2
Description: (§1) The biological activity of the compounds of the present invention was tested using standard assay protocols.^7 The following representative enzymes NDM-1 (New Delhi metallo-β-lactamase-1), IMP-1 (Imipenemase-1) and VIM-2 (Veronese metallo-β-lactamase-2) were selected from different clinically relevant B1 metallo-β-lactamases.

[2] = molecular target: NDM-1 (New Delhi metallo-β-lactamase-1) (Klebsiella pneumoniae, UniProt C7C422); assay: Enzyme inhibition assay, NDM-1
NDM-1 (New Delhi metallo-β-lactamase-1), sequence (C7C422 29-270, looked up, species assumed): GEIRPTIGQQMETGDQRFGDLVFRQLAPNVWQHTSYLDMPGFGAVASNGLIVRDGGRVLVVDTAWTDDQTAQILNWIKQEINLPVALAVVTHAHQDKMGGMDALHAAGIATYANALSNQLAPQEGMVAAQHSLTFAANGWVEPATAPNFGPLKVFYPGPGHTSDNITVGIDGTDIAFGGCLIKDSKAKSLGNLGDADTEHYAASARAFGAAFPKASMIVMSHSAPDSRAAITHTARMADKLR
Description: as §1

[3] = molecular target: IMP-1 (Imipenemase-1) (Serratia marcescens, UniProt P52699); assay: Enzyme inhibition assay, IMP-1
IMP-1 (Imipenemase-1), sequence (P52699 19-246, looked up, species assumed): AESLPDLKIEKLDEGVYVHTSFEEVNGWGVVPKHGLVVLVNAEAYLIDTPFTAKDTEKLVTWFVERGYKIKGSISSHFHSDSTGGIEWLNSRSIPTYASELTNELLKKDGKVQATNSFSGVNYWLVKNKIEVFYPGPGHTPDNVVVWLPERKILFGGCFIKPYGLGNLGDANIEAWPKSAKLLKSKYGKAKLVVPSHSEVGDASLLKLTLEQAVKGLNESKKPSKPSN
Description: as §1

[4] = read-out: pIC50 VIM-2 (converted)
[5] = read-out: pIC50 NDM-1 (converted)
[6] = read-out: pIC50 IMP-1 (converted)

SMILES	IC50 [1, 4]	IC50 [2, 5]	IC50 [3, 6]	IC50 [1]	IC50 [2]	IC50 [3]
Cc1cccc2c(-c3ccc4cn[nH]c4c3)c(C(=O)O)[nH]c12 [Example 32, 3-(1H-indazol-6-yl)-7-methyl-1H-indole-2-carboxylic acid]	79.4 nM	25.1 nM	12600 nM	–	–	–
Cc1cccc2c(-c3ccc(Cn4cncn4)cc3)c(C(=O)O)[nH]c12 [Example 33, 3-(4-((1H-1,2,4-triazol-1-yl)methyl)phenyl)-7-methyl-1H-indole-2-carboxylic acid]	251 nM	5.01 nM	2000 nM	–	–	–
Cc1cccc2c(-c3ccc(Cn4cccn4)cc3)c(C(=O)O)[nH]c12 [Example 34, 3-(4-((1H-pyrazol-1-yl)methyl)phenyl)-7-methyl-1H-indole-2-carboxylicacid]	200 nM	10000 nM	50.1 nM	–	–	–
Cc1cccc2c(C3=CCNCC3)c(C(=O)O)[nH]c12 [Example 36, 7-methyl-3-(1,2,3,6-tetrahydropyridin-4-yl)-1H-indole-2-carboxylic acid]	–	–	–	39800 nM	398 nM	> 100000 nM
Cc1cccc2c(-c3ccccc3)c(C(=O)O)[nH]c12 [Example 37, 7-methyl-3-phenyl-1H-indole-2-carboxylate]	398 nM	31.6 nM	10000 nM	–	–	–
Cc1cccc2c(-c3ccc(-c4ccccc4)cc3)c(C(=O)O)[nH]c12 [Example 40, 3-([1,1′-biphenyl]-4-yl)-7-methyl-1H-indole-2-carboxylic acid]	251 nM	15.8 nM	1580 nM	–	–	–
Cc1ccccc1-c1c(C(=O)O)[nH]c2c(C)cccc12 [Example 41, 7-methyl-3-(o-tolyl)-1H-indole-2-carboxylic acid]	251 nM	316 nM	1580 nM	–	–	–
Cc1cccc2c(-c3ccc(Cl)cc3)c(C(=O)O)[nH]c12 [Example 42, 3-(4-chlorophenyl)-7-methyl-1H-indole-2-carboxylic acid]	251 nM	15.8 nM	10000 nM	–	–	–
Cc1cccc2c(-c3ccc(Cl)c(C(F)(F)F)c3)c(C(=O)O)[nH]c12 [Example 43, 3-(4-chloro-3-(trifluoromethyl)phenyl)-7-methyl-1H-indole-2-carboxylic acid]	158 nM	31.6 nM	12600 nM	–	–	–
Cc1cccc2c(-c3cccc(C(F)(F)F)c3)c(C(=O)O)[nH]c12 [Example 44, 7-methyl-3-(3-(trifluoromethyl)phenyl)-1H-indole-2-carboxylic acid]	200 nM	31.6 nM	3980 nM	–	–	–
Cc1cccc2c(-c3ccc(C4CC4)cc3)c(C(=O)O)[nH]c12 [Example 45, 3-(4-cyclopropylphenyl)-7-methyl-1H-indole-2-carboxylic acid]	316 nM	31.6 nM	3980 nM	–	–	–
Cc1ccc2c(-c3ccc(S(N)(=O)=O)cc3)c(C(=O)O)[nH]c2c1 [Example 47, 6-methyl-3-(4-sulfamoylphenyl)-1H-indole-2-carboxylic acid]	7940 nM	398 nM	50100 nM	–	–	–
Cc1ccc2c(-c3ccc(C(N)=O)cc3)c(C(=O)O)[nH]c2c1 [Example 48, 3-(4-carbamoylphenyl)-6-methyl-1H-indole-2-carboxylic acid]	3980 nM	631 nM	> 100000 nM	–	–	–
Cc1cccc2c(-c3ccc(F)cc3)c(C(=O)O)[nH]c12 [Example 49, 3-(4-fluorophenyl)-7-methyl-1H-indole-2-carboxylic acid]	501 nM	31.6 nM	15800 nM	–	–	–
COc1cccc2c(-c3ccc(F)cc3)c(C(=O)O)[nH]c12 [Example 50, 3-(4-fluorophenyl)-7-methoxy-1H-indole-2-carboxylic acid]	1000 nM	251 nM	25100 nM	–	–	–
CCCc1cccc2c(-c3ccc(F)cc3)c(C(=O)O)[nH]c12 [Example 52, 3-(4-fluorophenyl)-7-propyl-1H-indole-2-carboxylic acid]	316 nM	20 nM	316 nM	–	–	–
O=C(O)c1[nH]c2c(Cl)cccc2c1-c1ccc(F)cc1 [Example 54, 7-chloro-3-(4-fluorophenyl)-1H-indole-2-carboxylic acid]	794 nM	251 nM	31600 nM	–	–	–
COc1ccc2c(-c3ccc(F)cc3)c(C(=O)O)[nH]c2c1C [Example 55, 3-(4-fluorophenyl)-6-methoxy-7-methyl-1H-indole-2-carboxylic acid]	398 nM	25.1 nM	2000 nM	–	–	–
Cc1ccc2c(-c3ccc(F)cc3)c(C(=O)O)[nH]c2c1C [Example 56, 3-(4-fluorophenyl)-6,7-dimethyl-1H-indole-2-carboxylic acid]	398 nM	31.6 nM	7940 nM	–	–	–

SMILES	IC50 [1, 4]	IC50 [2, 5]	IC50 [3, 6]	IC50 [1]	IC50 [2]	IC50 [3]
CC(C)(C)c1cccc2c(-c3ccc(F)cc3)c(C(=O)O)[nH]c12 [Example 57, 7-(tert-butyl)-3-(4-fluorophenyl)-1H-indole-2-carboxylic acid]	100 nM	79.4 nM	100 nM	–	–	–
Cc1cc(F)cc2c(-c3ccc(F)cc3)c(C(=O)O)[nH]c12 [Example 58, 5-fluoro-3-(4-fluorophenyl)-7-methyl-1H-indole-2-carboxylic acid]	794 nM	31.6 nM	15800 nM	–	–	–
Cc1cc(C)c2[nH]c(C(=O)O)c(-c3ccc(F)cc3)c2c1 [Example 59, 3-(4-fluorophenyl)-5,7-dimethyl-1H-indole-2-carboxylic acid]	501 nM	126 nM	25100 nM	–	–	–
COc1cc(C)c2[nH]c(C(=O)O)c(-c3ccc(F)cc3)c2c1 [Example 60, 3-(4-fluorophenyl)-5-methoxy-7-methyl-1H-indole-2-carboxylic acid]	631 nM	126 nM	> 100000 nM	–	–	–
COCCc1cccc2c(-c3ccc(F)cc3)c(C(=O)O)[nH]c12 [Example 61, 3-(4-fluorophenyl)-7-(2-methoxyethyl)-1H-indole-2-carboxylic acid]	316 nM	31.6 nM	1260 nM	–	–	–
O=C(O)c1[nH]c2c(CCOc3ccccc3)cccc2c1-c1ccc(F)cc1 [Example 62, 3-(4-fluorophenyl)-7-(2-phenoxyethyl)-1H-indole-2-carboxylic acid]	158 nM	5.01 nM	316 nM	–	–	–
Cc1cccc2c(-c3ccccn3)c(C(=O)O)[nH]c12 [Example 63, 7-methyl-3-(pyridin-2-yl)-1H-indole-2-carboxylic acid]	1000 nM	316 nM	> 100000 nM	–	–	–
Cc1c(Oc2ccccc2)ccc2c(-c3ccc(F)cc3)c(C(=O)O)[nH]c12 [Example 64, 3-(4-fluorophenyl)-7-methyl-6-phenoxy-1H-indole-2-carboxylic acid]	501 nM	15.8 nM	1580 nM	–	–	–
CC(C)c1cccc2c(-c3ccc(S(N)(=O)=O)cc3)c(C(=O)O)[nH]c12 [Example 65, 7-isopropyl-3-(4-sulfamoylphenyl)-1H-indole-2-carboxylic acid]	12.6 nM	1.58 nM	31.6 nM	–	–	–
CC(C)c1cccc2c(-c3ccccc3)c(C(=O)O)[nH]c12 [Example 66, 7-isopropyl-3-phenyl-1H-indole-2-carboxylic acid]	31.6 nM	5.01 nM	31.6 nM	–	–	–
CC(C)c1cccc2c(-c3ccc(S(C)(=O)=O)cc3)c(C(=O)O)[nH]c12 [Example 67, 7-isopropyl-3-(4-(methylsulfonyl)phenyl)-1H-indole-2-carboxylic acid]	20 nM	2.51 nM	39.8 nM	–	–	–
CC(C)c1cccc2c(-c3ccncc3)c(C(=O)O)[nH]c12 [Example 68, 7-isopropyl-3-(pyridin-4-yl)-1H-indole-2-carboxylic acid]	31.6 nM	6.31 nM	39.8 nM	–	–	–
CC(C)c1cccc2c(-c3ccc(C(N)=O)cc3)c(C(=O)O)[nH]c12 [Example 69, 3-(4-carbamoylphenyl)-7-isopropyl-1H-indole-2-carboxylic acid]	7.94 nM	2.51 nM	12.6 nM	–	–	–
CC(C)c1cccc2c(-c3ccc(N4CCOCC4)cc3)c(C(=O)O)[nH]c12 [Example 70, 7-isopropyl-3-(4-morpholinophenyl)-1H-indole-2-carboxylic acid]	79.4 nM	2.51 nM	10 nM	–	–	–
CC(C)c1cccc2c(-c3ccc(Cl)cc3)c(C(=O)O)[nH]c12 [Example 71, 3-(4-chlorophenyl)-7-isopropyl-1H-indole-2-carboxylic acid]	20 nM	3.98 nM	39.8 nM	–	–	–
CC(C)c1cccc2c(-c3ccccc3Cl)c(C(=O)O)[nH]c12 [Example 72, 3-(2-chlorophenyl)-7-isopropyl-1H-indole-2-carboxylic acid]	12.6 nM	50.1 nM	2510 nM	–	–	–
CC(C)c1cccc2c(-c3ccc(S(=O)(=O)N(C)C)cc3)c(C(=O)O)[nH]c12 [Example 73]	31.6 nM	0.355 nM	31.6 nM	–	–	–
CC(C)c1cccc2c(-c3ccc(C(=O)N(C)C)cc3)c(C(=O)O)[nH]c12 [Example 74, 3-(4-(dimethylcarbamoyl)phenyl)-7-isopropyl-1H-indole-2-carboxylic acid]	79.4 nM	0.562 nM	20 nM	–	–	–
CC(C)c1cccc2c(-c3ccc4[nH]ncc4c3)c(C(=O)O)[nH]c12 [Example 75, 3-(1H-indazol-5-yl)-7-isopropyl-1H-indole-2-carboxylic acid]	10 nM	2 nM	25.1 nM	–	–	–
